Experimental data: patent US9150521B2, “Methods of preventing and treating diabetes by inhibiting serotonin synthesis” (The Trustees of Columbia University in the City of New York, priority 2012, dated 2015)
Values belong to the compound of their own block, whether it stands above or below them.

Legend:
[1] = target: TPH1 (Mus musculus, UniProt P17532); settings: WT mice fed a high fat diet; LP533401 100 mg/kg/day by gavage
Text: (§1) Mice were housed under 12:12 light:dark cycle and chow and water were provided ad libitum. All animals were maintained according to NIH guidelines. The Htr2bflox/flox, Tph1flox/flox, and Villin-cre mice have been described previously (1). Alb-cre and aP2-cre mice were obtained from the Jackson Laboratory. For glucose tolerance tests mice were fasted overnight before i.p. injection of 2 g/kg body weight (BW) d-glucose in phosphate buffered saline (PBS) or 1 g/kg BW when mice were fed high fat diet. For pyruvate tolerance tests, mice were fasted overnight, injected i.p. with 2 g/kg BW sodium pyruvate in PBS. Glycerol tolerance test (4 g/kg BW) was performed after 4 h fasting. For insulin tolerance tests, mice were injected with 0.75 U/kg of insulin after 4 h fasting. Glucose was measured by tail vein bleeds at the indicated intervals using an ACCU-CHECK® glucometer. Measurement of free fatty acids (FFA) and glycerol were performed in plasma using a serum triglycerides determination kit (TR0100, Sigma) and a NEFA-HR(2) kit (WAKO Diagnostics). Plasma concentration of serotonin and glucagon were determined by Glucagon ELISA (Alpco, 48-GLUHU-E01) and Serotonin (Research) ELISA, (IBL-America, IB89540). Hyperinsulinemic-euglycemic clamp was performed in the University of Massachusetts Mouse Phenotyping Center, University of Massachusetts Medical School. […]

[2] = test system: WT mice; assay: Glucose tolerance test; type: in vivo
Text: as §1

[3] = test system: WT mice; assay: Insulin tolerance test; type: in vivo
Text: as §1

[4] = test system: WT mice; assay: Plasma levels of glycerol and FFA in mice; type: in vivo
Text: (§2) All animals were maintained according to NIH guidelines.

[5] = reference 24 (Liu et al. 2008); cited from earlier work
[6] = test system: WT mice; assay: Pyruvate tolerance test (gluconeogenesis); type: in vivo
Text: as §1

[7] = test system: epididymal fat pads; assay: In vitro lipolysis of isolated fat pads; type: cell-based, mouse
Experimental: (§3) In vitro lipolysis assay was performed as described (4). Briefly, epididymal fat pads were isolated and washed several times in Hank's Balanced Salt Solution (HBSS) (Sigma). Tissue pieces (˜25 mg) were incubated in Dulbecco's Modified Eagle's Medium (DMEM) medium (Invitrogen) containing 2% fatty acid free bovine serum albumin (Sigma) at 37° C. for 1 h. After this preincubation, the fat explants were transferred into identical, fresh medium containing serotonin (Sigma) or 10 μM forskolin as a positive control and incubated further for the indicated time-points at 37° C. Afterwards, aliquots of medium were taken for measurements of FFAs and glycerol using available kits (NEFA-HR(2), WAKO Diagnostics; serum triglycerides determination kit, TR0100, Sigma) and tissue was lysed with RIPA buffer for subsequent Western blot analysis or in TRIZOL® (Invitrogen) for gene expression analysis.

[8] = test system: WT mice; assay: Glycerol tolerance test in WT mice implanted with serotonin-releasing pellets; type: in vivo; settings: WT mice implanted with serotonin pellets vs placebo controls
Text: as §2

[9] = test system: hormone sensitive lipase (HSL); assay: Western blot of lipolytic enzymes in fat explants stimulated with serotonin; type: cell-based, mouse; settings: 50 μM serotonin, Htr2b-dependent
Experimental: as §3
Western blotting was performed according to standard procedures. Frozen tissues or cells were homogenized and lysed with RIPA buffer. Membranes were blocked and then incubated overnight with primary antibody in TBST-5% BSA, followed by incubation with appropriate HRP-conjugated secondary antibody. Signals were visualized with ECL. […]

[10] = Plasma serotonin concentration in mice implanted with serotonin-releasing pellets; type: in vivo; settings: WT mice, subcutaneous serotonin releasing pellets
Text: as §2
This was done by implanting subcutaneously serotonin releasing pellets in WT mice. These pellets increased circulating levels of serotonin approximately two-fold (FIG. 5C).

[11] = test system: primary hepatocytes; assay: In vitro glucose production in primary hepatocytes; type: cell-based, mouse; settings: for conversion of glycerol to glucose in hepatocytes: primary hepatocytes, indicated doses of serotonin or 100 nM glucagon
Experimental: Production of glucose was assessed in primary, freshly isolated, attached hepatocytes. Briefly, cells were platted on 12 well plate format (200,000 cells per well). After isolation, the cells were allowed to attach and recover for 6 h in Williams E medium containing 10% fetal calf serum. Then they were washed and starved for 1 h in Dulbecco's Modified Eagle's DMEM without glucose and phenol red but with 2 mM L-glutamate and 0.5% BSA (D5030, Sigma). Then the cells were switched to the same medium or the same medium containing 10 mM glycerol and stimulated with the indicated substances for 6 h. Glucose concentration was determined in the medium using Amplex Red Glucose/Glucose Oxidase Assay Kit, (Invitrogen, A22189). Glucose production from glycerol was determined by subtracting glucose produced by the cells incubated without glycerol from this incubated with glycerol.

[12] = WT mice fed a normal diet, compared with Tph1gutΔ/Δ mice
[13] = mice fed a high fat diet, LP533401 100 mg/kg/day
[14] = WT mice fed a high fat diet, fasted for 4 h, LP533401 100 mg/kg/day
[15] = Htr2b-deficient fat pad explants, 50 μM serotonin or 1 μM isoproterenol
[16] = epididymal fat pads treated with increasing amounts of serotonin
[17] = fed WT mice, subcutaneous serotonin releasing pellets

Chain of TPH1 (P17532 whole entry): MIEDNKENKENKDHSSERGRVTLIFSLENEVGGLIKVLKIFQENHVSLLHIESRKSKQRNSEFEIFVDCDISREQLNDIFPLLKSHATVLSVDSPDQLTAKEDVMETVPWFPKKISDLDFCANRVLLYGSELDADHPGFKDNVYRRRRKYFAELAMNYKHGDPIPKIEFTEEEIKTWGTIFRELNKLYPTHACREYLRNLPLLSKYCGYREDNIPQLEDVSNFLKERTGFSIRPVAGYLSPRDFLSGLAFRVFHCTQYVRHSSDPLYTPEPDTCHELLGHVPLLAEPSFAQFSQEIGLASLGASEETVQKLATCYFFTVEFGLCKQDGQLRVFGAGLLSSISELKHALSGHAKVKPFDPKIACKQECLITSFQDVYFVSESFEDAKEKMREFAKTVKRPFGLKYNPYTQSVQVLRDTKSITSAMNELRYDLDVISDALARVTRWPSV

Compound: Nc1nc(OC(c2ccc(-c3cccc(F)c3)cc2)C(F)(F)F)cc(-c2ccc(C[C@H](N)C(=O)O)cc2)n1 (stereo partly drawn) [LP533401]
reduction of circulating serotonin levels [1]: 80%
glucose tolerance [2, 12]: improved
glucose tolerance [2, 13]: significantly improved
insulin tolerance [3, 12]: improved
insulin sensitivity [3, 13]: normalized
FFAs circulating levels [4, 14]: normalization
glycerol circulating levels [4, 14]: decrease
FFA levels ([4]; WT mice fed a normal diet): decreased
glycerol levels ([4]; WT mice fed a normal diet): decreased
crossing of the blood-brain barrier [5]: does not cross efficiently the blood-brain barrier
gluconeogenesis rate ([6]; WT mice fed a normal diet): decreased
gluconeogenesis [6, 13]: significantly improved

Compound: CC(C)NCC(O)c1ccc(O)c(O)c1 (stereo not drawn) [isoproterenol]
release of FFAs [7, 15]: favored equally well
release of glycerol [7, 15]: favored equally well

increase of circulating levels of serotonin [10]: approximately two-fold
conversion of glycerol to glucose in hepatocytes [11]: stimulated
Compound: NCCc1c[nH]c2ccc(O)cc12 [serotonin, 5-hydroxytryptamine]
blood glucose levels after glycerol [8]: to a higher level than in controls
release of FFAs [7, 15]: failed to enhance
release of glycerol [7, 15]: failed to enhance
release of FFAs [7, 16]: significantly increased
release of glycerol [7, 16]: significantly increased
phosphorylation of hormone sensitive lipase (HSL) on serine residues 563 and 660 [9]: favored
lipolysis ([4]; WT mice implanted with serotonin pellets, fasted for 4 h): further enhanced
circulating levels of FFAs [4, 17]: significant increase
circulating levels of glycerol [4, 17]: significant increase
glucose production from glycerol ([11]; Htr2bΔ/Δ hepatocytes, 50 μM serotonin): could not induce

Compound: glucagon
conversion of glycerol to glucose in hepatocytes [11]: stimulated
